In PMC9981942, “Pharmacokinetics and tissue distribution of Ramulus Mori (Sangzhi) alkaloids in rats and its effects on liver enzyme activity” (Frontiers in Pharmacology, 2023):
Read-outs that look alike come from different tables or passages of the source.

Legend:
[1] = tested on: CYP450s in RLMs (other isoenzymes); test: Effect on activity of rat liver microsome isoenzymes other than CYP2C11; conditions: SZ-A 8.899 μg/mL, DNJ 20 μM, FA 5 μM, DAB 8 μM
[2] = Tissue distribution after single oral SZ-A (40 mg/kg) in SD rats, plasma and 12 tissues; type: in vivo
Experimental: (§1) Twenty SD rats were randomly classified into four groups corresponding to four-time points (5 and 30 min, 4 and 12 h) (n = 20; 5 animals per time point) that received SZ-A solution (40 mg/kg) via oral administration. After the completion of dose administration, plasma and tissue samples (derived from the heart, liver, spleen, lung, kidney, aortic blood vessels, brown adipose tissue, subcutaneous adipose tissue, abdominal adipose tissue, muscle (thigh skeletal muscle), pancreas, and brain) were collected at predetermined time points. Twenty-eight ICR mice were randomly classified into four groups (n = 7 per group) corresponding to four-time points (5 and 30 min, 4 and 12 h) that received SZ-A solution (20 mg/kg) via oral administration. After the completion of dose administration, tissue samples (derived from the heart, liver, spleen, lung, kidney, aortic blood vessels, brown adipose tissue, abdominal adipose tissue, muscle (thigh skeletal muscle), pancreas, and brain) were collected at predetermined time points.
(§2) Collected tissue samples were washed with normal saline. The surface moisture was removed by blotting gently with filter paper, and the weight was recorded. After adding an appropriate amount of normal saline, these tissue samples were ground into homogenates using a cryogenic grinder (JX-CL, Shanghai Jingxin, Shanghai, China). The obtained homogenates were stored at −80°C until LC-MS/MS analysis.
(§3) Primary pharmacokinetic parameters, including Cmax, Tmax, area under the plasma concentration-time curve (AUC), t1/2, clearance rate, and the apparent volume of distribution, were calculated using DAS 3.2.8 (Bio Guider Co., Shanghai, China).

[3] = Tissue distribution after single oral SZ-A (20 mg/kg) in ICR mice; type: in vivo
Experimental: as §1, §2

[4] = Pharmacokinetic study: plasma levels after oral SZ-A in SD rats (LC-MS/MS, DAS 3.2.8); type: in vivo; conditions: plasma, plasma; for Tmax / AUC(0-inf) / AUC(0-t) / Cmax / half-life / MRT last / MRT inf: both sexes, rat; for Tmax: SD, po; for AUC(0-inf) / AUC(0-t) / Cmax / half-life / CLz / VRT(0-t) / VRT(0-∞) / Vz: n=8; for MRT last: n=8, read-out: MRT(0-t); for MRT inf: n=8, read-out: MRT(0-∞)
Experimental: Twenty-four SD rats were fasted for 12 h (free access to water) and randomly classified into three groups (n = 8; half male and female) that received different doses of SZ-A solution (25, 50, and 200 mg/kg) via oral administration. After completion of dose administration, blood samples (0.3 mL) were collected through an indwelling catheter from the jugular vein at predetermined time points (5, 15, 30, and 45 min, 1, 2, 4, 8, and 24 h). The blood was centrifuged at 5,000 rpm for 10 min to separate the plasma. All plasma samples were stored frozen at −80°C until liquid chromatography coupled to tandem mass spectrometry (LC-MS/MS) analysis (AB SCIEX Triple Quad™ 4,500 mass spectrometer, Applied Biosystems Inc., United States).
as §3

major CYP450s in HLMs = test: Effect on activity of the major CYP450s in human liver microsomes (all isoforms together); conditions: final concentration SZ-A 8.899 μg/mL (equivalent to DNJ 20 μM), FA 5 μM, DAB 8 μM
[5] = Sprague-Dawley, rat, Kidney, n=5
[6] = Sprague-Dawley, rat, Liver, n=5
[7] = Sprague-Dawley, rat, Pancreas, n=5
[8] = Sprague-Dawley, rat, Plasma, n=5
[9] = Sprague-Dawley, rat, muscle (thigh skeletal muscle), Muscle, n=5
[10] = rat, Abdominal adipose tissue, n=5
[11] = rat, Subcutaneous adipose tissue, n=5

OC[C@H]1NC[C@@H](O)[C@@H]1O [DAB, 1,4-dideoxy-1,4-imino-D-arabinitol]
effect on other isoenzymes in RLMs [1]: no obvious effect
time of distribution peak in the aortic vessel [2]: ≤ 5 min
tissues with the highest concentrations [2]: kidney, followed by the liver, aortic vessels, and brown adipose tissue
AUC(0-t) ([2]; Aortic blood vessels, n=5): 962 ± 354 ng·h/mL
CLz ([2]; Plasma, n=5): 32.5 ± 4.33 mL/min/kg
Vz ([2]; Plasma, n=5): 1.61 ± 0.24 L/kg
half-life ([2]; Sprague-Dawley, rat, Brown adipose tissue, n=5): 40.8 ± 0.6 min
AUC(0-t) ([2]; Sprague-Dawley, rat, Brown adipose tissue, n=5, read-out: AUC(0-t)): 716 ± 259 ng·h/mL
Tmax ([2]; Sprague-Dawley, rat, Brown adipose tissue, n=5, read-out: Tmax): 30 min
Cmax [2, 5]: 13300 ± 2890 ng/mL
half-life [2, 5]: 165 ± 30.6 min
AUC(0-t) ([2]; Sprague-Dawley, rat, Kidney, n=5, read-out: AUC(0-t)): 37800 ± 7170 ng·h/mL
Tmax ([2]; Sprague-Dawley, rat, Kidney, n=5, read-out: Tmax): 30 min
Cmax [2, 6]: 2070 ± 396 ng/mL
half-life [2, 6]: 229 ± 44.4 min
AUC(0-t) ([2]; Sprague-Dawley, rat, Liver, n=5, read-out: AUC(0-t)): 8120 ± 2150 ng·h/mL
Tmax ([2]; Sprague-Dawley, rat, Liver, n=5, read-out: Tmax): 30 min
Cmax ([2]; Sprague-Dawley, rat, Lung, n=5): 200 ± 22.3 ng/mL
half-life ([2]; Sprague-Dawley, rat, Lung, n=5): 31.8 ± 16.2 min
Tmax ([2]; Sprague-Dawley, rat, Lung, n=5, read-out: Tmax): 13.2 ± 14.4 min
Cmax [2, 7]: 122 ± 16.9 ng/mL
half-life [2, 7]: 40.2 ± 2.4 min
AUC(0-t) ([2]; Sprague-Dawley, rat, Pancreas, n=5, read-out: AUC(0-t)): 854 ± 90 ng·h/mL
Tmax ([2]; Sprague-Dawley, rat, Pancreas, n=5, read-out: Tmax): 114 ± 115 min
Cmax [2, 8]: 973 ± 215 ng/mL
half-life [2, 8]: 34.2 ± 1.2 min
AUC(0-t) ([2]; Sprague-Dawley, rat, Plasma, n=5, read-out: AUC(0-t)): 2360 ± 349 ng·h/mL
Tmax ([2]; Sprague-Dawley, rat, Plasma, n=5, read-out: Tmax): 30 min
Cmax [2, 9]: 188 ± 38.4 ng/mL
half-life [2, 9]: 929 ± 700 min
AUC(0-t) ([2]; Sprague-Dawley, rat, muscle (thigh skeletal muscle), Muscle, n=5, read-out: AUC(0-t)): 1550 ± 212 ng·h/mL
Tmax ([2]; Sprague-Dawley, rat, muscle (thigh skeletal muscle), Muscle, n=5, read-out: Tmax): 67.2 ± 97.2 min
Cmax [2, 10]: 212 ± 58.2 ng/mL
half-life [2, 10]: 43.8 ± 3.6 min
AUC(0-t) ([2]; rat, Abdominal adipose tissue, n=5, read-out: AUC(0-t)): 460 ± 146 ng·h/mL
Tmax ([2]; rat, Abdominal adipose tissue, n=5, read-out: Tmax): 25.2 ± 11.4 min
Cmax ([2]; rat, Aortic blood vessels, n=5): 756 ± 536 ng/mL
half-life ([2]; rat, Aortic blood vessels, n=5): 27.6 ± 14.4 min
Tmax ([2]; rat, Aortic blood vessels, n=5, read-out: Tmax): 4.8 min
Cmax ([2]; rat, Brown adipose tissue, n=5): 269 ± 82.8 ng/mL
Cmax ([2]; rat, Heart, n=5): 114 ± 24.2 ng/mL
half-life ([2]; rat, Heart, n=5): 42.6 ± 0.6 min
AUC(0-t) ([2]; rat, Heart, n=5, read-out: AUC(0-t)): 469 ± 213 ng·h/mL
Tmax ([2]; rat, Heart, n=5, read-out: Tmax): 72 ± 94.2 min
AUC(0-t) ([2]; rat, Lung, n=5, read-out: AUC(0-t)): 333 ± 108 ng·h/mL
Cmax ([2]; rat, Spleen, n=5): 144 ± 39.9 ng/mL
half-life ([2]; rat, Spleen, n=5): 45 ± 4.2 min
AUC(0-t) ([2]; rat, Spleen, n=5, read-out: AUC(0-t)): 294 ± 87 ng·h/mL
Tmax ([2]; rat, Spleen, n=5, read-out: Tmax): 30 min
Cmax [2, 11]: 112 ± 41.5 ng/mL
half-life [2, 11]: 44.4 ± 1.8 min
AUC(0-t) ([2]; rat, Subcutaneous adipose tissue, n=5, read-out: AUC(0-t)): 232 ± 75 ng·h/mL
Tmax ([2]; rat, Subcutaneous adipose tissue, n=5, read-out: Tmax): 30 min
Tmax ([2]; rat, other tissues (not named), tissues not named separately for that alkaloid, read-out: time of peak concentration in other tissues (converted)): 30 min
accumulation in tissues ([2]; up to 12 h): no long-term accumulation
distribution in aortic vessels compared with other tissues [3]: lower than that in other tissues
tissues with the highest concentrations [3]: kidney, followed by the liver
Tmax ([4]; 25 mg/kg, oral SZ-A 25 mg/kg, n=8, read-out: Tmax): 18.6 ± 7.2 min
Tmax ([4]; 50 mg/kg, oral SZ-A 50 mg/kg, n=8, read-out: Tmax): 26.4 ± 21 min
Tmax ([4]; 200 mg/kg, oral SZ-A 200 mg/kg, n=8, read-out: Tmax): 45 ± 18 min
Tmax ([4]; 200 mg/kg, oral SZ-A 25, 50 and 200 mg/kg, read-out: time to maximum plasma concentration (Tmax), all dose groups): ≤ 52.8 min
AUC(0-inf) ([4]; oral SZ-A 25 mg/kg): 1360 ± 299 ng·h/mL
AUC(0-t) ([4]; oral SZ-A 25 mg/kg): 1360 ± 299 ng·h/mL
Cmax ([4]; oral SZ-A 25 mg/kg): 1050 ± 141 ng/mL
half-life ([4]; oral SZ-A 25 mg/kg): 69.6 ± 18.6 min
MRT last ([4]; oral SZ-A 25 mg/kg): 75.6 ± 10.2 min
MRT inf ([4]; oral SZ-A 25 mg/kg): 75.6 ± 10.2 min
AUC(0-inf) ([4]; oral SZ-A 50 mg/kg): 2660 ± 367 ng·h/mL
AUC(0-t) ([4]; oral SZ-A 50 mg/kg): 2660 ± 367 ng·h/mL
Cmax ([4]; oral SZ-A 50 mg/kg): 1770 ± 632 ng/mL
half-life ([4]; oral SZ-A 50 mg/kg): 72 ± 1.8 min
MRT last ([4]; oral SZ-A 50 mg/kg): 87 ± 33.6 min
MRT inf ([4]; oral SZ-A 50 mg/kg): 87 ± 33.6 min
AUC(0-inf) ([4]; oral SZ-A 200 mg/kg): 7630 ± 2040 ng·h/mL
AUC(0-t) ([4]; oral SZ-A 200 mg/kg): 7630 ± 2040 ng·h/mL
Cmax ([4]; oral SZ-A 200 mg/kg): 3640 ± 1370 ng/mL
half-life ([4]; oral SZ-A 200 mg/kg): 64.8 ± 2.4 min
MRT last ([4]; oral SZ-A 200 mg/kg): 96 ± 15.6 min
MRT inf ([4]; oral SZ-A 200 mg/kg): 96 ± 15.6 min
CLz ([4]; oral SZ-A 25 mg/kg): 45.3 ± 11 mL/min/kg
VRT(0-t) ([4]; oral SZ-A 25 mg/kg): 1.25±0.51 h^2
VRT(0-∞) ([4]; oral SZ-A 25 mg/kg): 1.25±0.51 h^2
Vz ([4]; oral SZ-A 25 mg/kg): 4.47 ± 1.53 L/kg
CLz ([4]; oral SZ-A 50 mg/kg): 45.2 ± 6.17 mL/min/kg
VRT(0-t) ([4]; oral SZ-A 50 mg/kg): 1.83±2.07 h^2
VRT(0-∞) ([4]; oral SZ-A 50 mg/kg): 1.83±2.07 h^2
Vz ([4]; oral SZ-A 50 mg/kg): 4.70 ± 0.65 L/kg
CLz ([4]; oral SZ-A 200 mg/kg): 65.7 ± 16.7 mL/min/kg
VRT(0-t) ([4]; oral SZ-A 200 mg/kg): 1.92±0.81 h^2
VRT(0-∞) ([4]; oral SZ-A 200 mg/kg): 1.92±0.81 h^2
Vz ([4]; oral SZ-A 200 mg/kg): 6.20 ± 1.82 L/kg
effect on the major CYP450s in HLMs, either inhibition or activation (major CYP450s in HLMs): no significant effect
